“Also recorded” adds a separate entry of the source. Counter-ions that a name gives are not always drawn. Like-named read-outs stand apart in the source and are kept apart here.
Experiments:
[1] = no APD clinical test described in the patent; cited from earlier work
calvaria cells = assay: cells; format: cell-based, Wistar rats
Procedure: Cellular culture; the cells are first cultured in accordance with the method reported by Fast, et al., (Biochemical Journal, 172, 97-107 (1978). In short, calvaria removed from Wistar rats one day old has been digested with collagenase. The freed cells have been placed on plates in a concentration of […] per ml of medium in Petri dishes of 3.5 cm diameter containing 1.5 ml of medium in dishes of 1.6 cm diameter containing 0.5 ml of medium. The cells have been cultivated in the essential minimum medium containing 10% of fetal calf serum in an atmophere of 5% CO2 at 37° C. up to the seventh or eighth day. The diphosphonates have been added on the first day up to the end of the experiment.
The cells have been counted with a Coulter counter after having been freed from the dishes by digestion with a mixture of collagenase and trypsin. On the seventh day, the mixture has been changed and the cells have been incubated for sixteen hours. The so obtained lactate during this period has been measured according to the method of Fast, et al.

[2] = Toxicity (DL50) in Swiss mice; format: in vivo, both male and female; details: mouse, in vivo, Swiss mice male and female
Description: (§1) In vivo, the degree of toxicity of AHEDP has been determined in Swiss mice, both male and female by various routes of administration and by comparison with some of the best known and used diphosphonates.

[3] = solutions, very low concentrations; cited from earlier work
[4] = oral route or systemic route; cited from earlier work
Toxicity (DL50) in rats = details: rat, in vivo, iv; I.v., rats (footnote *)
[5] = Clinical study: tolerability; format: in vivo
Description: (§2) Six individuals affected by the bone disease called Paget's condition, that is three men and three women of age between 52 and 68; three individuals affected by metastatic osteolysis, resulting from mammary carcinoma, that is three women between age 42 and 59 years old.
(§3) In eight cases, that is five individuals affected by Paget's disease and three individuals affected by osteolysis, the treatment has been carried out for fifteen days (in one of the cases of the individuals affected by Paget's disease, treatment continued for an additional fifteen days of therapy with a higher dosage); in the ninth case of the individual affected by Paget's disease, the treatment was continued for thirty days.
(§4) The first four cases, that is two individuals affected by Paget's disease and two individuals affected by osteolysis, have received dosage of AHEDP of 5 mg daily by the intravenous route (slow infusion); in the fifth case, the individual affected by Paget's disease, received a dose of 10 mg daily for fifteen days and then 20 mg daily for an additional period of fifteen days. Three other cases, that is two individuals affected by Paget's disease and one individual affected by osteolysis have been administered doses of 20 mg daily for fifteen days. The ninth individual affected by Paget's disease, has been treated with doses of 40 mg daily for 30 days.
(§5) Several parameters have been studied prior to the treatment, during the treatment and at the end of the treatment with respect to the metabolism of phosphorus and calcium and the tolerability of the substance.
Hemochromocytometric examination, proteinemia, glycemia, azotemia, creatininemia, transaminasemia, immunoglobulin.

[6] = system: demineralizing osteopathias, characterized by a high rate of bone reabsorption; assay: Clinical study: metabolism of phosphorus and calcium, indexes of bone reabsorption; format: in vivo
Description: In view of the favorable pharmacological and toxicological results, the substance, AHEDP, has been tested clinically. The study deals with the effects on the metabolism of phosphorus and calcium of the new diphosphonate according to the present invention used in the treatment of demineralizing osteopathias, characterized by a high rate of bone reabsorption.
as §2, §3, §4, §5
calcemia, phosphatemia, alkaline phosphatasemia, plasmatic PGE2, plasmatic iPTH, calciuria, phosphaturia, hydroxyprolinuria, cyclic nephrogenic AMP.

bone reabsorption = assay: Bone reabsorption and in vivo calcification (mineral density in the tibia metaphysis, body weight); set-up: species or system Wistar rats
Procedure: Groups of five Wistar rats of weight between 180 and 200 grams have been treated for seven days with 0.01, 0.1, 1.0 and 10 mg P/kg of AHEDP or with a physiological solution by the subcutaneous route. The animals have been fed with Altromine 1314 containing 1.1 gram per 100 grams of calcium, 1.2 grams per 100 grams P and 250 IU per 100 grams of Vitamin D3. On the eighth day, the animals were killed and the tibia bones are removed and fixed in 50% ethanol. The tibia bones were then prepared for the histological examination and sections of 70-80μ thickness have been prepared for the microradiological study. This procedure has permitted an estimate of the mineral density in the metaphysis (Schenk, et al. Calc. Tiss. Res. 11, 196-214, 1973).

Solubility = format: physicochemical
Swiss mice = assay: Toxicity (DL50) in Swiss mice; format: in vivo, both male and female
Description: as §1

[7] = Rattus norvegicus, read-out: No. of Cells, % of control ± E.S.

NCCC(O)(P(=O)([O-])O)P(=O)([O-])O.[Na+].[Na+] [APD, 3-Amino-1-hydroxypropane-1,1-diphosphonic acid disodium salt]
alterations in body temperature and hematic crasia (comparison analog) [1]: causes substantial alterations in the parameters discussed hereinabove
activity at 2.5 µM (calvaria cells; [7]): 90.8 ± 2.1%
activity at 25 µM (calvaria cells; [7]): 64.9 ± 4.1%
activity at 250 µM (calvaria cells; [7]): 0%
LD50 ([2]; ip, I.p.): 190 mg/kg
LD50 ([2]; iv, I.v.): 45 mg/kg
LD50 ([2]; po, OS (orally)): 625 mg/kg

O=P(O)(O)OP(=O)(O)O [pyrophosphate]
precipitation of calcium phosphate [3]: capable of inhibiting the precipitation of calcium phosphate
hydrolysis on administration [4]: rapid hydrolysis

CC(O)(P(=O)(O)O)P(=O)(O)O [EHDP, Ethane-1-hydroxy-1,1-diphosphonic acid disodium salt]
LD50 (Toxicity (DL50) in rats): 35 mg/kg
LD50 ([2]; ip, I.p.): 250 mg/kg
LD50 ([2]; po, OS (orally)): 2000 mg/kg

O=P([O-])([O-])C(Cl)(Cl)P(=O)(O)O.[Na+].[Na+] [Cl2 MDP, Dichloromethylenediphosphonic acid disodium salt]
LD50 ([2]; ip, I.p.): 780 mg/kg
LD50 ([2]; iv, I.v.): 75 mg/kg
LD50 ([2]; po, OS (orally)): > 2000 mg/kg

NCCCCCC(O)(P(=O)(O)O)P(=O)(O)O [AHEDP, 6-amino-1-hydroxyhexane-1,1-diphosphonic acid]
tolerability ([5]; 5-40 mg daily intravenous, 15-30 days): well tolerated; also recorded: tolerated in all cases
variations in the parameters of tolerability ([5]; hemochromocytometric examination, proteinemia, glycemia, azotemia, creatininemia, transaminasemia, immunoglobulin): has not caused significant variations in the parameters of tolerability
increase of the body temperature or variation in the hematic crasia ([5]; human, in vivo): in none of the individuals treated, there has been observed an increase of the body temperature or any variation in the hematic crasia
modifications of the hematic crasia and hepatic and renal functions ([5]; human, in vivo): nor have substantial modifications of the hematic crasia and hepatic and renal functions been noted
side effects ([5]; human, in vivo): no side effects of any significance have been noted; also recorded: no undesirable side effects have been noted
plasmatic PGE2 ([6]; 10 mg daily, one individual with Paget's disease): has not caused any change in this parameter
osteolysis and plasmatic alkaline phosphatase (both parameters) ([6]; 40 mg daily, one individual): a reduction of both parameters
alkaline phosphatasemia ([6]; 40 mg daily, one individual (Paget's disease in active phase)): clear and rapid decrease of the alkaline phosphatasemia levels
urinary excretion of inorganic calcium and inorganic phosphates ([6]; 5-10 mg daily): have not modified to a significant degree
alkaline phosphatasemia / indexes of osteoblastic activity ([6]; 5-10-20 mg daily): have not been modified; also recorded: have not caused significant modifications in the plasmatic alkaline phosphatase
osteolysis ([6]; 5-10-20 mg daily): blocking osteolysis
indexes of parathyroid activity (plasmatic immunoreactive PTH, cyclic nephrogenic AMP) ([6]; 5-10-20-40 mg daily): have not caused significant modification changes in the indexes of parathyroid activity
plasmatic PGE2 ([6]; 20-40 mg daily, three individuals with Paget's disease and high prior levels): substantial and rapid decrease in the plasmatic PGE2 in all three individuals
urinary excretion of inorganic calcium and inorganic phosphates ([6]; 20-40 mg daily, obvious particularly in phosphaturia): significant increases of these two parameters
urinary excretion of hydroxyproline ([6]; all the individuals treated): reduced to a significant extent in all the individuals treated; also recorded: prompt and progressive reduction of the urinary excretion of hydroxyproline
calcium and phosphate levels of the plasma ([6]; every dosage used): has not caused variations worth mentioning
hyperphosphatemia ([6]; human, in vivo): phases of hyperphosphatemia have not been observed
calcemia ([6]; very short periods of some treatments): a low degree of calciemic contents have been noted
hydroxyprolinuria, dependence on dosage ([6]; with respect to the values prior to treatment): so much greater with respect to the values prior to treatment, the higher the dosage
density of the bone (bone reabsorption; 0.01 mg P/kg, subcutaneous, seven days): no effect on the density of the bone
inhibition of the bone reabsorption (bone reabsorption; 0.1 mg and particularly 1 mg P/kg): a clear inhibition of the bone reabsorption
density of the metaphyses (bone reabsorption; 0.1 mg and particularly 1 mg P/kg, subcutaneous, seven days): an increase in the density of the metaphyses
influence on the body weight (bone reabsorption; 0.01, 0.1, 1.0 mg P/kg, subcutaneous, seven days): No treatment has shown any influence on the body weight
influence on the body weight (bone reabsorption; 10 mg P/kg, subcutaneous, seven days): except in the dose of 10 mg P/kg, which obviously has no significant value
inhibition of the bone reabsorption, in words and in comparison with other well-known diphosphonates (bone reabsorption; rat, in vivo): powerful inhibitor of the bone reabsorption in a degree superior or similar to that of other well-known diphosphonates
effect on the number of cells (in words) (calvaria cells; 250 μM): some reductions, although slightly in the number of cells
effect on the production of the lactate (in words) (calvaria cells; 250 μM): increase in the production of the lactate
activity at 0.25 µM (calvaria cells; Rattus norvegicus, 0.25 μM, read-out: No. of Cells, % of control ± E.S.): 96.6 ± 1.7%
activity at 2.5 µM (calvaria cells; Rattus norvegicus, 2.5 μM, * = significance with respect to the control (APD), read-out: No. of Cells, % of control ± E.S.): 95.7 ± 7.8%
activity at 25 µM (calvaria cells; Rattus norvegicus, 25 μM, * = significance with respect to the control (APD), read-out: No. of Cells, % of control ± E.S.): 104 ± 2.1%
activity at 250 µM (calvaria cells; Rattus norvegicus, 250 μM, * = significance with respect to the control (AHEDP), read-out: No. of Cells, % of control ± E.S.): 88.4 ± 1.5%
cellular toxicity, times less than APD (calvaria cells; compared with the analog APD): about 100 times less
effect on the cellular behavior (calvaria cells; concentrations lower than 250 μM): no negative effect is noted on the cellular behavior
solubility in HCl (Solubility; HCl of average concentration): dissolves in HCl of average concentration
solubility in water (Solubility; water): little soluble in water
solubility with NaOH (Solubility; water with addition of one equivalent of NaOH): dissolves completely by addition of one equivalent of NaOH
LD50 ([2]; ip, I.p.): 650 mg/kg
LD50 ([2]; iv, I.v.): 85 mg/kg
LD50 ([2]; po, OS (orally)): > 2000 mg/kg
degree of toxicity (in words) (Swiss mice; every route of administration): low degree of toxicity in every route of administration
tolerance in comparison with the analog ADP (Swiss mice; mouse, in vivo): superior tolerance
